Read-outs that look alike come from different tables or passages of the source.
Key:
Ggt [1] = assay: In vitro assay: inhibition of mycelial growth of Ggt on minimal media agar; assay type: cell-based, Gaeumannomyces graminis var. tritici; settings: Gaeumannomyces graminis, read-out: % Control of Ggt In Vitro
Procedure: The test compounds (0.25 mL of an appropriate stock solution in acetone) were incorporated into 25 mL minimal media agar [prepared by autoclaving a solution of 17.5 g Czapek Dox broth (Difco), 7.5 g purified agar or Bacto-agar (Difco), and 500 mL distilled/deionized water, and then adding 50 μL of 1 mg/mL thiamine hydrochloride and 50 μL of 1 mg/mL biotin in 5% ethanol] and plates were prepared.
Each plate was inoculated by placing in a triangular shape three 4 mm plugs of Ggt grown on the minimal media agar described above. The plates were incubated in the dark at 19-20° C. for 4-5 days. The growth of the fungus was measured as the diameter of the mycelial growth and the result expressed as Percent Inhibition, calculated as [1−[(mm growth on treated plate−4)/(mm growth on control plate−4)]]×100.

Ggt [2] = assay: 4 Week In Vivo Seed Treatment Assay on "Bergen" wheat in soil infested with Ggt; parameters: species or system Gaeumannomyces graminis var. tritici
Procedure: The test compounds were tested for control of Ggt on “Bergen” varieties of wheat grown in 3 inch square pots containing soil (equal to thirds of Metro-mix, sand, and silt-loam filed soil, all steam sterilized). Seeds were treated with a solution of a test compound in acetone. Using a 10,000 ppm stock for each compound, the following serial dilutions were prepared.
When 1 mL of the stock and dilutions was applied to 10 gm of seed, the resultant application rates were 100 and 25 g of active ingredient per 100 kg of seed.
A treatment jar was rinsed 2 times with 3 mL of acetone. The 1 mL of the solution was swirled to cover the base of the jar. 10 gm of seed was added to the jar and capped, after which the jar was swirled and shaken until the seeds got a rapid and even coverage. After about 30-50 seconds, the lid was removed while the shaking was continued. After 1 minute, the jar was set aside to dry. When dry, the seed was poured into an envelope for storage until planting.
Compounds were tested for control of Ggt on “Bergen” varieties of wheat grown in 3 inch square pots containing soil infested with Ggt. The infestation was accomplished by mixing the soil with an inoculum prepared by growing Ggt on infested sterile oats (400 cc whole oats, 350 mL deionized water, autoclaved). After a one month incubation period at room temperature, the oats were dried and mixed with the soil at 4% v/v.
The roots were harvested, washed, and rated after 4 weeks. Each treatment was assigned a percent (%) diseased root area value using 1, 5, 10, 20, 30, 40, 50, 60, 80, or 100% ratings. Each pot of plants got a single rating.

[3] = 0.01 ppm in agar, 4-5 days at 19-20° C.
[4] = 0.1 ppm in agar, 4-5 days at 19-20° C.
[5] = 1 ppm in agar, 4-5 days at 19-20° C.
[6] = 10 ppm in agar, 4-5 days at 19-20° C.
[7] = 25 g ai/100 kg seed, roots rated after 4 weeks
[8] = 100 g ai/100 kg seed, roots rated after 4 weeks

Row | Structure (SMILES) | inhibition of growth at 0.1 ppm (Ggt [1]; [4]) | inhibition of growth at 1 ppm (Ggt [1]; [5]) | inhibition of growth at 10 ppm (Ggt [1]; [6]) | further results
1 | CCCNC(=O)/C(=N\OC(C)(C)C)c1ccccc1 [Example 1] | 96% | 100% | 100% | inhibition of growth at 0.01 ppm (Ggt [1]; [3]): 4%; % Control of Ggt In Vivo (Ggt [2]; [7]): 71%; % Control of Ggt In Vivo (Ggt [2]; [8]): 79%
2 | CCCNC(=O)/C(=N/OC(C)(C)C)c1ccccc1 [Example 2] | 27% | 0% | 0% | –
3 | CCCNC(=O)/C(=N\NC(C)(C)C)c1ccccc1 [Example 3] | 19% | 89% | 97% | % Control of Ggt In Vivo (Ggt [2]; [7]): 21%; % Control of Ggt In Vivo (Ggt [2]; [8]): 0%
4 | CCCNC(=O)/C(=N/NC(C)(C)C)c1ccccc1 [Example 4] | 0% | 0% | 43% | –
5 | CCCNC(=O)/C(=N\OC(C)(C)CC)c1ccccc1 [Example 5] | 100% | 100% | 100% | inhibition of growth at 0.01 ppm (Ggt [1]; [3]): 59%
6 | CCCNC(=O)/C(=N/OC(C)(C)CC)c1ccccc1 [Example 6] | 2% | 2% | 20% | –
7 | CCCNC(=O)/C(=N\OC(C)(CC)CC)c1ccccc1 [Example 7] | 98% | 100% | 100% | inhibition of growth at 0.01 ppm (Ggt [1]; [3]): 16%
8 | CCCNC(=O)/C(=N/OC(C)(CC)CC)c1ccccc1 [Example 8] | 2% | 80% | 98% | –
9 | CCCNC(=O)C(=NOC(C)(C)C)c1ccc(C)cc1 [Example 9] | 7% | 37% | 80% | –
10 | CCCNC(=O)C(=NOC(C)(C)C)c1cccc(C)c1 [Example 10] | 5% | 32% | 80% | –
11 | CCCNC(=O)C(=NOC(C)(C)C)c1ccccc1F [Example 11] | 0% | 43% | 77% | –
12 | C=CCNC(=O)C(=NOC(C)(C)C)c1ccccc1 [Example 12] | 67% | 98% | 100% | –
13 | C=CCNC(=O)C(=NNC(C)(C)C)c1ccccc1 [Example 13] | 25% | 96% | 96% | –
14 | CCCNC(=O)/C(=N\OC(C)(C)C)c1cccs1 [Example 14] | 96% | 100% | 100% | –
15 | CCCNC(=O)/C(=N/OC(C)(C)C)c1cccs1 [Example 15] | 10% | 20% | 94% | –
16 | CCCNC(=O)C(=NOC(C)(C)C)c1ccco1 [Example 16] | 24% | 51% | 92% | –
17 | C=CCNC(=O)c1c([Si](C)(C)C)sc(C)c1C [Standard, reference compound] | – | – | – | inhibition of growth at 0.01 ppm (Ggt [1]): 100%; inhibition of growth at 0.1 ppm (Ggt [1]): 100%; inhibition of growth at 1 ppm (Ggt [1]): 100%; inhibition of growth at 10 ppm (Ggt [1]): 100%; % Control of Ggt In Vivo (Ggt [2]; 25, roots rated after 4 weeks): 90%; % Control of Ggt In Vivo (Ggt [2]; 100, roots rated after 4 weeks): 93%

— US6359156B1, “Oxime amides and hydrazone amides having fungicidal activity” (Monsanto Technology LLC, priority 1999, dated 2002)
